Laboratory results reported in patent US8901118B2, “Compounds and methods for kinase modulation, and indications therefor” (Plexxikon Inc., priority 2010, dated 2014).

Key:
[1] = biological target: T1, BCR-FMS BaF3 cells (Homo sapiens, UniProt P07333); experiment: BaF3 BCR-FMS cell proliferation assay (ATPlite); assay type: cell-based; settings: read-out: Inhibition of Cell Proliferation IC50, BCR/BaF3 Fms
T1 construct: fused on or other part: P11274 (Breakpoint cluster region protein)
T1 sequence (P07333 582-910): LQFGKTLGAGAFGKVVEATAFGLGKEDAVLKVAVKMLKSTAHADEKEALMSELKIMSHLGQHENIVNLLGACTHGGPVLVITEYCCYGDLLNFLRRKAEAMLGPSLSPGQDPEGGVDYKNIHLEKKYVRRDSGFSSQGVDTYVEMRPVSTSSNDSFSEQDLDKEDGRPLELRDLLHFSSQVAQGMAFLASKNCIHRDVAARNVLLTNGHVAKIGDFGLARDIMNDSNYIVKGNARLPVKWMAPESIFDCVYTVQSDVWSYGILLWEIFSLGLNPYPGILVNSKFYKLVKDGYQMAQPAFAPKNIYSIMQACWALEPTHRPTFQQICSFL
Protocol: (§1) Compounds are assessed in a variety of cell based assays. For example BaF3 cells engineered with any of BCR-FMS, BCR-KIT, BCR-FLT3, BCR-NTRK1, BCR-NTRK2, and BCR-NTRK3, are used in cell proliferation assays to assess inhibitory activity of Fms, Kit, Flt-3, TrkA, TrkB, and TrkC, respectively. An MV-4-11 (leukemia) cell proliferation assay is used to assess inhibitory activity in Flt-3, and SKNSH (human neuroblastoma) cell proliferation assay is used to assess efficacy of Fms/Trk inhibitors. Additional cells may be assayed similarly to assess the efficacy of Fms/Trk inhibitors, such as MiaPaCa (human pancreatic cancer) and Capan-1 (human pancreatic carcinoma) cells. Reagent and assay conditions are as follows: • BaF3 cells: • Maintained in RPMI containing 10% FBS, 1% PenStrep, 1% NEAA, and 1% L-Glutamine, supplemented with 1 mg/mL G418 and 5% WEHI-CM (or recombinant murine IL-3). • Confluent cells are split 1:50 to 1:100 every 3-4 days. • MV-4-11 cells: • Maintained in Iscove's Modified Dulbecco's Medium containing 10% FBS. • Confluent cells are split 1:4 every 3-4 days. • SKNSH cells: RPMI containing 10% FBS. On day 1, cells are counted, then centrifuged in a conical tube for 5 minutes at 1000 rpm. The supernatant is removed and cells are re-suspended as follows: • BaF3: resuspend in growth media +1 mg/mL G418 (without WEHFIL-3) to 2×10^5 cells/mL. • MV-4-11: resuspend in growth media to 5×10^5 cells/mL. • SKNSH: resuspend in growth media to 2×10^4 cells/mL. The cells are plated (50 μL, 150 μL for SKNSH cells) in each well of a 96-well dish (Corning 3610) and incubated at 37° C. in 5% CO2 overnight, cells plated to a final concentration of cells as follows: • BaF3: 10,000 cells per well. • MV-4-11: 25,000 cells per well. • SKNSH: 3,000 cells per well. On day 2, compound at a maximum concentration of 5 mM is serially diluted 1:3 for a total of 8 point titration with DMSO as a control. A 1 μL aliquot of each dilution point is added to 249 μL growth media and 50 μL is added to a well containing cells, providing 10 μM compound for the maximum concentration point. The cells are incubated for 3 days at 37° C. in 5% CO2. For SKNSH cells, a 0.75 μL aliquot of appropriate dilution in DMSO is added to 150 μL of cells. On day 5, ATPlite 1 step Luminescence Assay System (Perkin Elmer #6016739) is brought to room temperature along with the cell cultures. ATPlite is added to each well as follows: • BaF3: 25 μL per well. • MV-4-11: 40 μL per well. • SKNSH: 20 μL per well. The cells are incubated at room temperature for 10 minutes, then luminescence is read on Safire reader. The measured luminescence correlates directly with cell number, such that the reading as a function of compound concentration is used to determine the IC50 value.
(§2) It is understood that the results of these assays may vary as assay conditions are varied. Inhibition levels determined under the conditions described herein represent a relative activity for the compounds tested under the specific conditions employed. The cell based assays are likely to show variability due to the complexity of the system and the sensitivity thereof to any changes in the assay conditions. […] Results for compounds that are tested and show substantially no inhibition below the highest tested concentration are represented as “-” in the tables below. In some instances, the compounds were not tested in all of the assays, or assay results were not valid, as indicated by NA in the tables below.

[2] = biological target: CYP2C9 (Homo sapiens, UniProt P11712); experiment: CYP2C9 inhibition (fluorescent substrate MFC); assay type: in vitro ADME; settings: read-out: Cyp IC50 2C9
Chain of CYP2C9 (P11712 whole entry): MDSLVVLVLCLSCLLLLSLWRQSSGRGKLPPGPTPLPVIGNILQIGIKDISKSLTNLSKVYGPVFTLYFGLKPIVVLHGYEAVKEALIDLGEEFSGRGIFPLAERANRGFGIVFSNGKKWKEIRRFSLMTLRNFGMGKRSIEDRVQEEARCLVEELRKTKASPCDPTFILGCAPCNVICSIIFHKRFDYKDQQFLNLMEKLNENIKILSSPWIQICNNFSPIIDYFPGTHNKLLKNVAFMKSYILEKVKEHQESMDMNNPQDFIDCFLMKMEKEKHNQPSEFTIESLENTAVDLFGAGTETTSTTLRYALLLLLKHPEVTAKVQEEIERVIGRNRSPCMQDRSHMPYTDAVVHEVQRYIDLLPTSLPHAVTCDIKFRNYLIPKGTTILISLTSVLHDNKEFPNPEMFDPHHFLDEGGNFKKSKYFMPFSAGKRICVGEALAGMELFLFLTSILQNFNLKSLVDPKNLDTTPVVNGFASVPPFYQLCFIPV
Protocol: CYP (Cytochrome P450) enzymes are the major drug metabolizing enzymes present in the liver. The inhibition of CYP enzyme activity (IC50) for each of CYP1A2, CYP2C19, CYP2C9, CYP2D6, CYP3A4(BFC) and CYP3A4(BQ) is determined for compounds, where inhibition of metabolism of a known substrate leads to a decrease in the fluorescence of the metabolized product. The fluorescence of the product is monitored as a function of compound concentration. Compounds are dissolved in DMSO to a concentration of 100 mM. These are diluted 1 μL into 82 μL of acetonitrile. An 11 μL aliquot of this solution is then added to 204 μL of cofactor mix (1.3% NADPH Regeneration system Solution A, 1.04% NADPH Regeneration system Solution B from BD Biosciences, 5% acetonitrile and 0.05% DMSO). These are then serially diluted 1:1 (160 μL to 160 μL co-factor mix) for a total of 10 points. A 10 μL aliquot of this final mixture is dispensed into 384 well assay plates and incubated for 10 minutes at 37° C. […] Assay plates are incubated at 37° C. (CYP1A2-15 min; CYP2C9-45 min; CYP2C19, 2D6 and 3A4-30 min) and read in a Tecan Safire 2 plate reader (CYP1A2, 2C19 and 3A4 409 ex/460 em; CYP2C9 and 2D6 409 ex/530 em). The signal versus compound concentration is used to determine the IC50. The enzymes and substrates for this assay are obtained from BD Biosciences.

[3] = biological target: T2, BCR-NTRK3 BaF3 cells (Homo sapiens, UniProt Q16288); experiment: BaF3 BCR-NTRK3 cell proliferation assay (ATPlite); assay type: cell-based; settings: read-out: Inhibition of Cell Proliferation IC50, BCR/BaF3 TrkC
T2 construct: fused on or other part: P11274 (Breakpoint cluster region protein)
T2 sequence (Q16288 whole entry, the tested form may be a part): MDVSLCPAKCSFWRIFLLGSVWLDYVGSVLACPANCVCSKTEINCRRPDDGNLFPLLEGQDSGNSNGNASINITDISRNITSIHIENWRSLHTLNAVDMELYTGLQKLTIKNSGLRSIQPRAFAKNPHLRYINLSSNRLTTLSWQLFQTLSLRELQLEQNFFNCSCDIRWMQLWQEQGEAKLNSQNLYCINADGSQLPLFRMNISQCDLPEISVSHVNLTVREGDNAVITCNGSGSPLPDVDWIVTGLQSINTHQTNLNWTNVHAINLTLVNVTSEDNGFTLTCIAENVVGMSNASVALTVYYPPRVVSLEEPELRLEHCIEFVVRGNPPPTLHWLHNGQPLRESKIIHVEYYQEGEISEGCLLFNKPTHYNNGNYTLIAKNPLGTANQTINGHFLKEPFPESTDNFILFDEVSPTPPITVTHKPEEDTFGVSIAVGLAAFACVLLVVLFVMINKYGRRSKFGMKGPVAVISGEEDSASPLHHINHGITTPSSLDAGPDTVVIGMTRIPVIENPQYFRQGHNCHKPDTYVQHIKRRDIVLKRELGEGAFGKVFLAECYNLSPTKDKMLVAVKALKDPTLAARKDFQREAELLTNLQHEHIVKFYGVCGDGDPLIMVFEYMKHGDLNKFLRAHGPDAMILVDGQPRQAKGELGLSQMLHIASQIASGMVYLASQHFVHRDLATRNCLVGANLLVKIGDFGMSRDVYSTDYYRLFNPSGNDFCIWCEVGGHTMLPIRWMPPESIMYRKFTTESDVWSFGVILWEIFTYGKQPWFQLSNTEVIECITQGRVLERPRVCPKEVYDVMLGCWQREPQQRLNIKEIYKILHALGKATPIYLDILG
Protocol: as §1, §2

| IC50 [1] | IC50 [2] | IC50 [3] | Structure (SMILES) |
| --- | --- | --- | --- |
| < 10 nM | < 5 µM | – | CCc1ccc(Nc2ccc(C(=O)c3c[nH]c4ncnc(NC5CCC(F)(F)CC5)c34)c(F)n2)cn1 [Compound P-4096, [4-[(4,4-difluorocyclohexyl)amino]-7H-pyrrolo[2,3-d]pyrimidin-5-yl]-[6-[(6-ethyl-3-pyridyl)amino]-2-fluoro-3-pyridyl]methanone] |
| < 10 nM | > 10 µM | < 10 nM | COc1ccc(Nc2ccc(C(=O)c3c[nH]c4ncnc(NCC(F)(F)F)c34)c(F)n2)cn1 [Compound P-4084, [2-fluoro-6-[(6-methoxy-3-pyridyl)amino]-3-pyridyl]-[4-(2,2,2-trifluoroethylamino)-7H-pyrrolo[2,3-d]pyrimidin-5-yl]methanone] |
| < 10 nM | < 5 µM | < 10 nM | CNc1ncnc2[nH]cc(C(=O)c3ccc(Nc4ccc(C(F)(F)F)nc4)nc3F)c12 [Compound P-4092, [2-fluoro-6-[[6-(trifluoromethyl)-3-pyridyl]amino]-3-pyridyl]-[4-(methylamino)-7H-pyrrolo[2,3-d]pyrimidin-5-yl]methanone] |
| < 10 nM | > 10 µM | < 10 nM | COc1ccc(Nc2ccc(C(=O)c3c[nH]c4ncnc(NC(C)C)c34)c(F)n2)cn1 [Compound P-4066, [2-fluoro-6-[(6-methoxy-3-pyridyl)amino]-3-pyridyl]-[4-(isopropylamino)-7H-pyrrolo[2,3-d]pyrimidin-5-yl]methanone] |
| < 10 nM | < 5 µM | – | CNc1ncnc2[nH]cc(C(=O)c3ccc(NC4CCCCC4)nc3F)c12 [Compound P-4102, [6-(cyclohexylamino)-2-fluoro-3-pyridyl]-[4-(methylamino)-7H-pyrrolo[2,3-d]pyrimidin-5-yl]methanone] |
| < 100 nM | < 5 µM | – | CCCCNc1ncnc2[nH]cc(C(=O)c3ccc(Nc4ccc(CC)nc4)nc3F)c12 [Compound P-4100, [4-(butylamino)-7H-pyrrolo[2,3-d]pyrimidin-5-yl]-[6-[(6-ethyl-3-pyridyl)amino]-2-fluoro-3-pyridyl]methanone] |
| < 100 nM | 5 to 10 µM | – | CC(C)Nc1ncnc2[nH]cc(C(=O)c3ccc(NC4CCCCC4)nc3Cl)c12 [Compound P-4109, [2-chloro-6-(cyclohexylamino)-3-pyridyl]-[4-(isopropylamino)-7H-pyrrolo[2,3-d]pyrimidin-5-yl]methanone] |
| < 1000 nM | – | < 100 nM | CNc1ncnc2[nH]cc(C(=O)c3ccc(Nc4ccc(OC)nc4)nc3OC)c12 [Compound P-4085, [2-methoxy-6-[(6-methoxy-3-pyridyl)amino]-3-pyridyl]-[4-(methylamino)-7H-pyrrolo[2,3-d]pyrimidin-5-yl]methanone] |
| < 10 nM | < 5 µM | – | CCc1ccc(Nc2ccc(C(=O)c3c[nH]c4ncnc(NC5CCCC5)c34)c(F)n2)cn1 [Compound P-4099, [4-(cyclopentylamino)-7H-pyrrolo[2,3-d]pyrimidin-5-yl]-[6-[(6-ethyl-3-pyridyl)amino]-2-fluoro-3-pyridyl]methanone] |
| < 10 nM | > 10 µM | – | CCCNc1ncnc2[nH]cc(C(=O)c3ccc(Nc4ccc(C)nc4)nc3F)c12 [Compound P-4114, [2-fluoro-6-[(6-methyl-3-pyridyl)amino]-3-pyridyl]-[4-(propylamino)-7H-pyrrolo[2,3-d]pyrimidin-5-yl]methanone] |
| < 100 nM | – | > 10000 nM | Fc1ccccc1Nc1ncc(Cc2c[nH]c3ncc(Cl)cc23)cn1 [Compound P-3014, [5-(5-Chloro-1H-pyrrolo[2,3-b]pyridin-3-ylmethyl)-pyrimidin-2-yl]-(2-fluoro-phenyl)-amine] |
| < 10 nM | > 10 µM | – | Cc1ccc(Nc2ccc(C(=O)c3c[nH]c4ncnc(NCC5CC5)c34)c(F)n2)cn1 [Compound P-4113, [4-(cyclopropylmethylamino)-7H-pyrrolo[2,3-d]pyrimidin-5-yl]-[2-fluoro-6-[(6-methyl-3-pyridyl)amino]-3-pyridyl]methanone] |
| < 10 nM | 5 to 10 µM | – | CC(C)Nc1ncnc2[nH]cc(C(=O)c3ccc(NC4CCCCC4)nc3F)c12 [Compound P-4101, [6-(cyclohexylamino)-2-fluoro-3-pyridyl]-[4-(isopropylamino)-7H-pyrrolo[2,3-d]pyrimidin-5-yl]methanone] |
| < 1000 nM | – | > 10000 nM | Clc1cnc2[nH]cc(Cc3cnc(Nc4ccccc4Cl)nc3)c2c1 [Compound P-3015, (2-Chloro-phenyl)-[5-(5-chloro-1H-pyrrolo[2,3-b]pyridin-3-ylmethyl)-pyrimidin-2-yl]-amine] |
| < 100 nM | < 5 µM | – | CCc1ccc(Nc2ccc(C(=O)c3c[nH]c4ncnc(NCCCOC)c34)c(F)n2)cn1 [Compound P-4098, [6-[(6-ethyl-3-pyridyl)amino]-2-fluoro-3-pyridyl]-[4-(3-methoxypropylamino)-7H-pyrrolo[2,3-d]pyrimidin-5-yl]methanone] |
| < 100 nM | < 5 µM | – | CCc1ccc(Nc2ccc(C(=O)c3c[nH]c4ncnc(N[C@@H](C)c5ccc(F)cc5)c34)c(F)n2)cn1 [Compound P-4097, [6-[(6-ethyl-3-pyridyl)amino]-2-fluoro-3-pyridyl]-[4-[[(1S)-1-(4-fluorophenyl)ethyl]amino]-7H-pyrrolo[2,3-d]pyrimidin-5-yl]methanone] |
| < 100 nM | < 5 µM | – | CNc1ncnc2[nH]cc(C(=O)c3ccc(NC4CCCCC4)nc3Cl)c12 [Compound P-4110, [2-chloro-6-(cyclohexylamino)-3-pyridyl]-[4-(methylamino)-7H-pyrrolo[2,3-d]pyrimidin-5-yl]methanone] |
